# Test results published in patent US20250352520A1, “USE OF DEXPRAMIPEXOLE FOR THE TREATMENT OF EOSINOPHILIC COPD” (Areteia Therapeutics, Inc., priority 2024, published 2025).
# Like-named read-outs stand apart in the source and are kept apart here.
# Settings: Week 16
# Description: Participants performed post-BD spirometry at specific visits as noted in the SOA.
# After completing the pre-BD spirometry, participants inhaled four puffs of albuterol/salbutamol (site sourced) metered dose inhaler (approximately 100 μg albuterol/salbutamol base per actuation), with each actuation 1 minute apart. Post-BD spirometry was assessed within 15 to 30 minutes after inhalation of albuterol/salbutamol.
# [1] = <50% AEC reduction at Week 16 (N = 4), 150 mg BID
# [2] = >=50% AEC reduction at Week 16 (N = 3), 150 mg BID
smiles,measurement,setting,value
"CCCN[C@@H]1CCc2nc(N)sc2C1 [Dexpramipexole, (6R)-2-amino-4,5,6,7-tetrahydro-6-(propylamino)benzothiazole]","Post bronchodilator Peak Flow, Observed, Median",[1],324.5 L/min
same,"Post bronchodilator Peak Flow, Observed, Min",[1],146 L/min
same,"Post bronchodilator Peak Flow, Observed, Q1",[1],227 L/min
same,"Post bronchodilator Peak Flow, Observed, Q3",[1],425 L/min
same,"Post-BD FEV1 % change from baseline, Max",>=50% AEC reduction at Week 16,57%
same,"Post-BD FEV1 % change from baseline, Mean ± SD",>=50% AEC reduction at Week 16,16.6 ± 35.02%
same,"Post-BD FEV1 % change from baseline, Median",>=50% AEC reduction at Week 16,−1.1%
same,"Post-BD FEV1 % change from baseline, Min",>=50% AEC reduction at Week 16,−6%
same,"Post-BD FEV1 % change from baseline, Q1",>=50% AEC reduction at Week 16,−6%
same,"Post-BD FEV1 % change from baseline, Q3",>=50% AEC reduction at Week 16,57%
same,"Post-BD FEV1 Observed, Max",>=50% AEC reduction at Week 16,2150 mL
same,"Post-BD FEV1 Observed, Mean ± SD",>=50% AEC reduction at Week 16,1593.3 ± 616.95 mL
same,"Post-BD FEV1 Observed, Median",>=50% AEC reduction at Week 16,1700.0 mL
same,"Post-BD FEV1 Observed, Min",>=50% AEC reduction at Week 16,930 mL
same,"Post-BD FEV1 Observed, Q1",>=50% AEC reduction at Week 16,930 mL
same,"Post-BD FEV1 Observed, Q3",>=50% AEC reduction at Week 16,2150 mL
same,"Post-BD FEV1 change from baseline, Max",>=50% AEC reduction at Week 16,780 mL
same,"Post-BD FEV1 change from baseline, Mean ± SD",>=50% AEC reduction at Week 16,220.0 ± 487.54 mL
same,"Post-BD FEV1 change from baseline, Median",>=50% AEC reduction at Week 16,-10.0 mL
same,"Post-BD FEV1 change from baseline, Min",>=50% AEC reduction at Week 16,-110 mL
same,"Post-BD FEV1 change from baseline, Q1",>=50% AEC reduction at Week 16,-110 mL
same,"Post-BD FEV1 change from baseline, Q3",>=50% AEC reduction at Week 16,780 mL
same,"Post bronchodilator Forced Expiratory Flow 25-75% (FEF25-75), % CFB (Percent change from baseline), Max",[2],81%
same,"Post bronchodilator Forced Expiratory Flow 25-75% (FEF25-75), % CFB (Percent change from baseline), Mean ± SD",[2],26.7 ± 49.08%
same,"Post bronchodilator Forced Expiratory Flow 25-75% (FEF25-75), % CFB (Percent change from baseline), Median",[2],12.5%
same,"Post bronchodilator Forced Expiratory Flow 25-75% (FEF25-75), % CFB (Percent change from baseline), Min",[2],−14%
same,"Post bronchodilator Forced Expiratory Flow 25-75% (FEF25-75), % CFB (Percent change from baseline), Q1",[2],−14%
same,"Post bronchodilator Forced Expiratory Flow 25-75% (FEF25-75), % CFB (Percent change from baseline), Q3",[2],81%
same,"Post bronchodilator Forced Expiratory Flow 25-75% (FEF25-75), CFB (Change from baseline), Max",[2],520 mL/s
same,"Post bronchodilator Forced Expiratory Flow 25-75% (FEF25-75), CFB (Change from baseline), Mean ± SD",[2],130.0 ± 350.86 mL/s
same,"Post bronchodilator Forced Expiratory Flow 25-75% (FEF25-75), CFB (Change from baseline), Median",[2],30.0 mL/s
same,"Post bronchodilator Forced Expiratory Flow 25-75% (FEF25-75), CFB (Change from baseline), Min",[2],-160 mL/s
same,"Post bronchodilator Forced Expiratory Flow 25-75% (FEF25-75), CFB (Change from baseline), Q1",[2],-160 mL/s
same,"Post bronchodilator Forced Expiratory Flow 25-75% (FEF25-75), CFB (Change from baseline), Q3",[2],520 mL/s
same,"Post bronchodilator Forced Expiratory Flow 25-75% (FEF25-75), Observed, Max",[2],1160 mL/s
same,"Post bronchodilator Forced Expiratory Flow 25-75% (FEF25-75), Observed, Mean ± SD",[2],810.0 ± 474.45 mL/s
same,"Post bronchodilator Forced Expiratory Flow 25-75% (FEF25-75), Observed, Median",[2],1000.0 mL/s
same,"Post bronchodilator Forced Expiratory Flow 25-75% (FEF25-75), Observed, Min",[2],270 mL/s
same,"Post bronchodilator Forced Expiratory Flow 25-75% (FEF25-75), Observed, Q1",[2],270 mL/s
same,"Post bronchodilator Forced Expiratory Flow 25-75% (FEF25-75), Observed, Q3",[2],1160 mL/s
same,"Post bronchodilator Forced Vital Capacity (FVC), % CFB (Percent change from baseline), Max",[2],36%
same,"Post bronchodilator Forced Vital Capacity (FVC), % CFB (Percent change from baseline), Mean ± SD",[2],9.2 ± 23.24%
same,"Post bronchodilator Forced Vital Capacity (FVC), % CFB (Percent change from baseline), Median",[2],−2.4%
same,"Post bronchodilator Forced Vital Capacity (FVC), % CFB (Percent change from baseline), Min",[2],−6%
same,"Post bronchodilator Forced Vital Capacity (FVC), % CFB (Percent change from baseline), Q1",[2],−6%
same,"Post bronchodilator Forced Vital Capacity (FVC), % CFB (Percent change from baseline), Q3",[2],36%
same,"Post bronchodilator Forced Vital Capacity (FVC), CFB (Change from baseline), Max",[2],900 mL
same,"Post bronchodilator Forced Vital Capacity (FVC), CFB (Change from baseline), Mean ± SD",[2],226.7 ± 585.26 mL
same,"Post bronchodilator Forced Vital Capacity (FVC), CFB (Change from baseline), Median",[2],-60.0 mL
same,"Post bronchodilator Forced Vital Capacity (FVC), CFB (Change from baseline), Min",[2],-160 mL
same,"Post bronchodilator Forced Vital Capacity (FVC), CFB (Change from baseline), Q1",[2],-160 mL
same,"Post bronchodilator Forced Vital Capacity (FVC), CFB (Change from baseline), Q3",[2],900 mL
same,"Post bronchodilator Forced Vital Capacity (FVC), Observed, Max",[2],3400 mL
same,"Post bronchodilator Forced Vital Capacity (FVC), Observed, Mean ± SD",[2],2796.7 ± 527.86 mL
same,"Post bronchodilator Forced Vital Capacity (FVC), Observed, Median",[2],2570.0 mL
same,"Post bronchodilator Forced Vital Capacity (FVC), Observed, Min",[2],2420 mL
same,"Post bronchodilator Forced Vital Capacity (FVC), Observed, Q1",[2],2420 mL
same,"Post bronchodilator Forced Vital Capacity (FVC), Observed, Q3",[2],3400 mL
same,"Post bronchodilator Peak Flow, % CFB (Percent change from baseline), Max",[2],103%
same,"Post bronchodilator Peak Flow, % CFB (Percent change from baseline), Mean ± SD",[2],40.2 ± 55.44%
same,"Post bronchodilator Peak Flow, % CFB (Percent change from baseline), Median",[2],21.5%
same,"Post bronchodilator Peak Flow, % CFB (Percent change from baseline), Min",[2],−3%
same,"Post bronchodilator Peak Flow, % CFB (Percent change from baseline), Q1",[2],−3%
same,"Post bronchodilator Peak Flow, % CFB (Percent change from baseline), Q3",[2],103%
same,"Post bronchodilator Peak Flow, CFB (Change from baseline), Max",[2],161 L/min
same,"Post bronchodilator Peak Flow, CFB (Change from baseline), Mean ± SD",[2],64.3 ± 86.56 L/min
same,"Post bronchodilator Peak Flow, CFB (Change from baseline), Median",[2],38.0 L/min
same,"Post bronchodilator Peak Flow, CFB (Change from baseline), Min",[2],-6 L/min
same,"Post bronchodilator Peak Flow, CFB (Change from baseline), Q1",[2],-6 L/min
same,"Post bronchodilator Peak Flow, CFB (Change from baseline), Q3",[2],161 L/min
same,"Post bronchodilator Peak Flow, Observed, Max",[2],318 L/min
same,"Post bronchodilator Peak Flow, Observed, Mean ± SD",[2],233.0 ± 77.58 L/min
same,"Post bronchodilator Peak Flow, Observed, Median",[2],215.0 L/min
same,"Post bronchodilator Peak Flow, Observed, Min",[2],166 L/min
same,"Post bronchodilator Peak Flow, Observed, Q1",[2],166 L/min
same,"Post bronchodilator Peak Flow, Observed, Q3",[2],318 L/min
